Where “and” joins values, the source holds several entries; their conditions need not be identical. Equal entries are not always repeated. Where two headings read alike, the source gives them in different places.
Test system: patients with newly diagnosed glioblastoma
Settings: for TEAEs leading to discontinuation of the labelled study drug(s), patients: February 20, 2022 cutoff
Source text: The phase Ib, dose-escalation part of this study explored escalating oral doses of trotabresib in combination with TMZ in the adjuvant setting and with TMZ plus RT in the concomitant setting. […] Dose-escalation decisions were made by the safety review committee, based on all available safety, pharmacokinetics, pharmacodynamics, and preliminary efficacy information, and a calculation of risk assessment using a Bayesian logistic regression model.
The primary endpoints of the study were to determine the safety and tolerability, maximum tolerated dose, and/or recommended phase II dose (RP2D) of trotabresib in combination with TMZ as adjuvant therapy, and with TMZ and RT as concomitant therapy. […] Trotabresib pharmacodynamics was an exploratory endpoint.
Adverse events (AEs) were classified using the Medical Dictionary for Regulatory Activities v18.1 or higher system organ class and preferred term. Severity of AEs was graded based on the patient’s symptoms according to the National Cancer Institute Common Terminology Criteria for Adverse Events v5.0.[35] Dose-limiting toxicities (DLTs) were defined as any of the toxicities described in Supplementary Table S2 occurring within the DLT assessment period (cycle 1 [28 days]), unless the event could clearly be determined to be unrelated to trotabresib. Screening MRI scans were performed after surgical resection and within 28 days (+3 days) prior to initiation of study treatment. Subsequent tumor assessments by MRI or CT were performed at week 10 during the concomitant treatment period and at the end of every other treatment cycle from cycle 2 onwards during the adjuvant and trotabresib monotherapy treatment periods. Best overall response (BOR) was evaluated as complete response (CR), partial response (PR), SD, progressive disease (PD), or not evaluable, according to Response Assessment in Neuro-Oncology criteria for high-grade glioma.[36] Plasma samples were collected during the first treatment cycle for investigation of trotabresib pharmacokinetics and pharmacodynamics. Plasma pharmacokinetic parameters assessed included peak plasma concentration (Cmax), time to peak plasma concentration (tmax), area under the plasma concentration–time curve (AUC), and terminal half-life (t½). Pharmacodynamic markers assessed included blood levels of CCR1 and HEXIM1 mRNA, which are established markers of BET inhibitor target engagement.[17],[22],[37],[38]

[1] = adjuvant overall (N = 18), related to labelled drug(s)

**Q.** What does the source list for `Cn1cc(-c2cc(S(C)(=O)=O)ccc2OCC2CC2)c2ccccc2c1=O` [Trotabresib]?
**A.** TRAEs leading to discontinuation of TMZ, related to labelled drug(s) (adjuvant 30 mg (n = 6)): 1 (17) 1 (17) 1 (17) n (%); TRAEs leading to discontinuation of any study drug, related to labelled drug(s) (adjuvant 30 mg (n = 6)): 1 (17) 1 (17) 1 (17) n (%); TRAEs leading to discontinuation of trotabresib, related to labelled drug(s) (adjuvant 30 mg (n = 6)): 1 (17) 1 (17) 1 (17) n (%); TEAEs leading to discontinuation of the labelled study drug(s), patients (adjuvant 30 mg (n = 6)): 1 (17) 1 (17) 1 (17) n (%); TEAEs leading to discontinuation of the labelled study drug(s), patients (adjuvant 45 mg (n = 7)): 1 (14) 1 (14) 1 (14) n (%); Recommended phase II dose (RP2D) (adjuvant (+ TMZ) and concomitant (+ TMZ + RT) settings, 4 days on/24 days off): 30 mg; Rash and other skin-related TRAEs attributed to trotabresib only (adjuvant overall): 7 (39%) n (%); TRAEs leading to discontinuation of TMZ, related to labelled drug(s) (adjuvant overall (N = 18)): 1 (6) 1 (6) 1 (6) n (%); TRAEs leading to discontinuation of any study drug, related to labelled drug(s) (adjuvant overall (N = 18)): 1 (6) 1 (6) 1 (6) n (%); TRAEs leading to discontinuation of trotabresib, related to labelled drug(s) (adjuvant overall (N = 18)): 1 (6) 1 (6) 1 (6) n (%); TEAEs leading to discontinuation of the labelled study drug(s), patients (adjuvant overall (N = 18)): 2 (11) 2 (11) 2 (11) n (%); ALT increased TRAE, any grade [1]: 1 (6) n (%); ALT increased TRAE, grade 3/4 [1]: 0 n (%); AST increased TRAE, any grade [1]: 1 (6) n (%); AST increased TRAE, grade 3/4 [1]: 0 n (%); Acneiform dermatitis TRAE, any grade [1]: 3 (17) n (%); Acneiform dermatitis TRAE, grade 3/4 [1]: 0 n (%); Anemia TRAE, any grade [1]: 4 (22) n (%); Anemia TRAE, grade 3/4 [1]: 0 n (%); Any TRAE, any grade [1]: 16 (89) n (%); Any TRAE, grade 3/4 [1]: 9 (50) n (%); Asthenia TRAE, any grade [1]: 7 (39) n (%); Asthenia TRAE, grade 3/4 [1]: 1 (6) n (%); Blood bilirubin increased TRAE, any grade [1]: 0 n (%); Blood bilirubin increased TRAE, grade 3/4 [1]: 0 n (%); Decreased appetite TRAE, any grade [1]: 6 (33) n (%); Decreased appetite TRAE, grade 3/4 [1]: 0 n (%); Diarrhea TRAE, any grade [1]: 11 (61) n (%); Diarrhea TRAE, grade 3/4 [1]: 1 (6) n (%); Dysgeusia TRAE, any grade [1]: 6 (33) n (%); Dysgeusia TRAE, grade 3/4 [1]: 0 n (%); Dyspepsia TRAE, any grade [1]: 2 (11) n (%); Dyspepsia TRAE, grade 3/4 [1]: 0 n (%); Fatigue TRAE, any grade [1]: 2 (11) n (%); Fatigue TRAE, grade 3/4 [1]: 0 n (%); Hyperbilirubinemia TRAE, any grade [1]: 6 (33) n (%); Hyperbilirubinemia TRAE, grade 3/4 [1]: 1 (6) n (%); Hyperglycemia TRAE, any grade [1]: 4 (22) n (%); Hyperglycemia TRAE, grade 3/4 [1]: 1 (6) n (%); Hypophosphatemia TRAE, any grade [1]: 2 (11) n (%); Hypophosphatemia TRAE, grade 3/4 [1]: 0 n (%); Hypotension TRAE, any grade [1]: 2 (11) n (%); Hypotension TRAE, grade 3/4 [1]: 0 n (%); Insomnia TRAE, any grade [1]: 2 (11) n (%); Insomnia TRAE, grade 3/4 [1]: 0 n (%); Intracranial hemorrhage TRAE, any grade [1]: 1 (6) n (%); Intracranial hemorrhage TRAE, grade 3/4 [1]: 1 (6) n (%); Leukopenia TRAE, any grade [1]: 1 (6) n (%); Leukopenia TRAE, grade 3/4 [1]: 0 n (%); Lymphopenia TRAE, any grade [1]: 2 (11) n (%); Lymphopenia TRAE, grade 3/4 [1]: 1 (6) n (%); Nausea TRAE, any grade [1]: 9 (50) n (%); Nausea TRAE, grade 3/4 [1]: 0 n (%); Neutropenia TRAE, any grade [1]: 5 (28) n (%); Neutropenia TRAE, grade 3/4 [1]: 3 (17) n (%); Pruritus TRAE, any grade [1]: 3 (17) n (%); Pruritus TRAE, grade 3/4 [1]: 0 n (%); Rash TRAE, any grade [1]: 5 (28) n (%); Rash TRAE, grade 3/4 [1]: 0 n (%); Seizure TRAE, any grade [1]: 0 n (%); Seizure TRAE, grade 3/4 [1]: 0 n (%); Thrombocytopenia TRAE, any grade [1]: 10 (56%) n (%) and 10 (56) n (%)
